Measured values: patent US10363251B2, “(+)-morphinans as antagonists of toll-like receptor 9 and therapeutic uses thereof” (Mallinckrodt LLC, priority 2009, dated 2019)

Target: T1, TLR7 (Homo sapiens, UniProt Q9NYK1)
T1 construct: expressed in transfected cells; host or cells: HEK293
T1 sequence (Q9NYK1 27-1049): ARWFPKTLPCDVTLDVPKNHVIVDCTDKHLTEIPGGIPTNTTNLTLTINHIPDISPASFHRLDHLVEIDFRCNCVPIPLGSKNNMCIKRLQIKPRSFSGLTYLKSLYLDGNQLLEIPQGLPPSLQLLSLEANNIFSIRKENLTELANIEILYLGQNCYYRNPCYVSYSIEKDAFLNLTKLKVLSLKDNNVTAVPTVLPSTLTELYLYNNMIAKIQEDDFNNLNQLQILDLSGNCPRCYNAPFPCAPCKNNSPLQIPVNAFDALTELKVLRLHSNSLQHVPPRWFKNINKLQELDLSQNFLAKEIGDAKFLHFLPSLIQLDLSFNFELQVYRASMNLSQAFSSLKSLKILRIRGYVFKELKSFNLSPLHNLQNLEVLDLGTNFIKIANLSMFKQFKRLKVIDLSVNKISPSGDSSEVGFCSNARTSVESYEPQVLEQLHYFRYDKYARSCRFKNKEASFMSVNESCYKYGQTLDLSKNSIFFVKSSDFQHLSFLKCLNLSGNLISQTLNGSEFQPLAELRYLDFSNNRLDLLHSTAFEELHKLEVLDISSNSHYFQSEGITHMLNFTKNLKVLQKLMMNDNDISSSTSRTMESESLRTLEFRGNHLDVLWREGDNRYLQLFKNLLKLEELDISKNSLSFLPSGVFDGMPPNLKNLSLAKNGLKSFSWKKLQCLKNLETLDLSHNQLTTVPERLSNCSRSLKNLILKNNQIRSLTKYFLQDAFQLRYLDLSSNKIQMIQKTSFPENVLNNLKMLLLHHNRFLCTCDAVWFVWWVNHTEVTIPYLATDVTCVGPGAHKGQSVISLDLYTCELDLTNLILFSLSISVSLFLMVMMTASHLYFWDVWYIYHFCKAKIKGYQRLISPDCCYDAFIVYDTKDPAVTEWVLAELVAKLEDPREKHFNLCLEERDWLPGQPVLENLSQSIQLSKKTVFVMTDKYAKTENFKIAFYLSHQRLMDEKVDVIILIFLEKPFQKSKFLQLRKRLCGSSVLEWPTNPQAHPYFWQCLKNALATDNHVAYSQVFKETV
Assay: TLR7 antagonist screening, NF-κB-inducible SEAP reporter in HEK293 cells
Assay type: cell-based
Conditions: for Average % Inhibition at TLR7: 10 μM, stimulated with CL097 at 1 μg/ml
Method: Stimulation of TLRs 2, 3, 4, 5, 7, 8, and 9 was determined by assessing activation of the transcription factor NF-κB in HEK293 cells that were engineered to express the corresponding receptors. Assessment of TLR stimulation was based on the use of an NF-κB-inducible secreted alkaline phosphatase (SEAP) reporter system in which the SEAP reporter was under the control of a promoter inducible by NF-κB. Thus, the degree of activation of TLRs can be indirectly quantified spectrophotometrically by measuring the amount of the SEAP reporter that is produced.
The appropriate TLR-expressing cells were plated in Growth Medium in a 96-well plate (25,000-50,000 cells/well). The cells were stimulated with the appropriate positive control ligand or no ligand was added (negative control). The positive control ligands were: HKLM was used to stimulate TLR2; poly(I:C) was used to stimulate TLR3; LPS was used to stimulate TLR4; Flagellin was used to stimulate TLR5; CL097 was used to stimulate TLR7; CL075 was used to stimulate TLR8; CpG oligodeoxynucleotide (ODN) 2006 was used to stimulate TLR9. To test whether (+)-morphinans could block that activation of the TLR, the cells were pretreated with an antagonist for 30 minutes prior to addition of the positive control ligand. […] After a 16-20 hr incubation period at 37° C. in a CO2 incubator, 20 μL of the cell culture supernatant was added to 180 μL of QUANTI-Blue™ Media (InvivoGen, San Diego, Calif.), and the resulting solutions were incubated at 37° C. for an additional 1-3 hours according to the manufacturer's instructions. The OD's of the samples were then read at 650 nm on a Beckman Coulter AD 340C Absorbance Detector.

Row | Structure (SMILES) | Average % Inhibition at TLR7 [%] | inhibition at 10 µM (HEK293, stimulated with CL097 at 1 μg/ml) [%]
1 | C=CCN1CC[C@]23c4c5ccc(O)c4O[C@H]2C(=O)CC[C@]3(O)[C@H]1C5 [(+)-Naloxone, (+)-naloxone] | 18 | –
2 | COc1ccc2c(c1O)[C@@]13CCN(C)[C@@H](C2)[C@H]1CC(OC)C(=O)C3 (stereo partly drawn) [Dihydrosinomenine, dihydrosinomenine] | 11 | –
3 | COC1=C[C@@H]2[C@@H]3Cc4ccc(OC)c(O)c4[C@]2(CCN3C)CC1=O [Sinomenine, sinomenine] | – | 20
